From patent US20230416205A1, “COMPOUNDS, COMPOSITIONS, AND METHODS” (Denali Therapeutics Inc, priority 2020, published 2023) come the findings set out here.

pIC50: −log10 of the molar value. Where two headings read alike, the source gives them in different places. A value given as a limit tells only on which side of the number the result lay.

The assay relates to NLRP3. The assay is described as follows: IL-1β secretion assay in PMA-differentiated, LPS/nigericin-stimulated THP-1 cells (384-well, ELISA read-out). It counts as cell-based, human. On the procedure: Compounds as provided herein were tested in the following assay. Cell culture medium employed contained RPMI 1640 medium (89%), FBS (10%), Pen/Strep (1%), and 2-mercaptoethanol (0.05 mM). Freezing medium was made up of 90% FBS and 10% DMSO. THP-1 cells were removed from the liquid nitrogen and placed into a 37° C. water bath to thaw, until signs of ice dissipated. The cells were then added to 9 mL of warm cell culture medium and centrifuged for 5 minutes at 1000 rpm. The supernatant was discarded, and the cells were resuspended in new cell culture medium. THP-1 cells were then split and cultured in the cell culture medium, being passaged every 2-3 days with the cell density will be maintained between 5×10^5 and 1.5×10^6 viable cells/mL.
To freeze, cells were resuspended with fresh freezing medium, adjusting the cell density to 5×10^6 cells/mL. The cell suspension was partitioned into 1 mL aliquots per vial, and the vials were transferred to a −80° C. freezer. After one day at −80° C., the cell vials were transferred to liquid nitrogen freezer for storage.
PMA was dissolved in DMSO to make a stock solution at 5 mg/mL and stored in 10 μl aliquots at −20° C. for single use. PMA is added to normal growth medium. LPS was diluted with 1 mL of water solution to provide a 1 mg/mL stock solution and stored in 15 μl aliquots at −20° C. for single use. Nigericin is diluted in ice cold 100% ethanol to 5 mg/mL (6.7 mM) and stored in 75 μL aliquots at −20° C. for single use. Serum-free media contains RPMI 1640 medium (99%), Pen/Strep (1%), and 2-mercaptoethanol (0.05 mM). The two control conditions used to qualify and normalize test compound dose-response curves were as follows: High Control=25 ng/mL LPS, 5 μM Nigericin, 0.5% DMSO, Low Control=25 ng/mL, LPS, 0.5% DMSO.
THP-1 cells were diluted to provide a suspension at a concentration of 1.0×10^6 cells/mL with the total volume of suspension required to enable the desired number of assay plates. The growth media was supplemented with PMA (5 ng/mL final concentration) and the cells were incubated at 37° C. under a humidified atmosphere of 5% CO2 for 40 h.
All media was carefully aspirated from each culture flask. The cells were washed carefully with 1×DPBS. The cells were then briefly digested with trypsin LE for 5 minutes at 23° C., and immediately resuspended in cell growth media. After resuspension, the cells were centrifuged at 1000 rpm for 3 minutes and the supernatant was discarded. The cells were resuspended in DPBS and once again centrifuged at 1000 rpm for 5 minutes. The supernatant was discarded and the cell pellet was resuspended in serum-free media supplemented with LPS (25 ng/mL final concentration) to enable the distribution of 30K THP-1 cells within 45 μL of media into each well of 384-well PDL-coated plates. The 384-well plates were then incubated at 37° C. under a humidified atmosphere of 5% CO2 for 2 h. Following this period, test compounds were dispensed by Tecan across the desired concentration range with all wells normalized to a final 0.5% DMSO concentration. The plates were then incubated at 37° C. under a humidified atmosphere of 5% CO2 for 1 h. Following this period, 5 μL of the […] was added to each of the appropriate wells and plates were centrifuged at 1000 rpm for 30 seconds. The plates were the immediately reintroduced to the incubator at 37° C. under a humidified atmosphere of 5% CO2 for 2 h. After this time, 35 μL/well of supernatant was collected and transferred into v-bottom plate and centrifuged at 1000 rpm for 1 minute. These supernatant aliquots were analyzed using an IL-Iβ detection kit as described below. If needed, the test samples could be snap frozen and stored at −80° C. until analyzed.
To prepare each ELISA plate, capture antibody (mAb Mt175) was diluted with PBS to a final concentration of 2 μg/mL and then 20 μL of this solution was added to each well of the ELISA plate. Each plate was allowed to incubate overnight at 4° C.

The mark [1] stands for this setting: Homo sapiens, THP-1, IL-1β secretion, PMA-differentiated THP-1 cells, LPS then nigericin stimulation, ELISA read at 450 nm, read-out: Activity.
The mark [2] stands for this setting: Homo sapiens, THP-1, Table 4, IL-1β secretion, LPS/nigericin-stimulated THP-1 cells, read-out: IC50.
Where [3] appears, read: Table 4, IL-1β secretion, LPS/nigericin-stimulated THP-1 cells, read-out: IC50.
The mark [4] stands for this setting: IL-1β secretion, PMA-differentiated THP-1 cells, LPS then nigericin stimulation, ELISA read at 450 nm, read-out: Activity.

Take `O=C(CN1C[C@@]2(C[C@H]2F)c2cc(Br)ccc2C1=O)Nc1ncc(F)cn1` (mixture of isomers) [Example 80, 2-[(2′r,4r)-6-bromo-2′-fluoro-1-oxospiro[3H-isoquinoline-4,1′-cyclopropane]-2-yl]-N-(5-fluoropyrimidin-2-yl)acetamide]: the pIC50 is above 5.00 under setting [1] and 5.97 under setting [2].
The corresponding values for `O=C(CN1C[C@@]2(C[C@@H]2F)c2cc(Br)cc(F)c2C1=O)Nc1ncc(F)cn1` (mixture of isomers) [Example 285, 2-[(2′s,4r)-6-bromo-2′,8-difluoro-1-oxospiro[3H-isoquinoline-4,1′-cyclopropane]-2-yl]-N-(5-fluoropyrimidin-2-yl)acetamide] are above 5.00 and 6.78.
The corresponding values for `O=C(CN1C[C@@]2(C[C@@H]2F)c2cc(Br)ccc2C1=O)Nc1ncc(F)cn1` (single isomer, unassigned) [Example 78] are above 5.00 and 6.68.
The corresponding values for `O=C(CN1C[C@@]2(C[C@@H]2F)c2c(ccc(Br)c2F)C1=O)Nc1ncc(F)cn1` (single isomer, unassigned) [Example 220, 2-[(2′s,4r)-6-bromo-2′,5-difluoro-1-oxospiro[3H-isoquinoline-4,1′-cyclopropane]-2-yl]-N-(5-fluoropyrimidin-2-yl)acetamide] are above 5.00 and 7.70.
On to `N#Cc1cnc(NC(=O)CN2C[C@@]3(C[C@@H]3F)c3c(ccc(Br)c3F)C2=O)nc1` (single isomer, unassigned) [Example 221, 2-[(2′s,4r)-6-bromo-2′,5-difluoro-1-oxospiro[3H-isoquinoline-4,1′-cyclopropane]-2-yl]-N-(5-cyanopyrimidin-2-yl)acetamide], for which the pIC50 under setting [1] was above 5.00 and the pIC50 under setting [2] was 7.85.
For the molecule `O=C(CN1C[C@@]2(C[C@@H]2F)c2c(ccc(Br)c2F)C1=O)Nc1ncc(Cl)cn1` (single isomer, unassigned) [Example 222, 2-[(2′s,4r)-6-bromo-2′,5-difluoro-1-oxospiro[3H-isoquinoline-4,1′-cyclopropane]-2-yl]-N-(5-chloropyrimidin-2-yl)acetamide], the pIC50 under setting [1] is above 5.00 and the pIC50 under setting [2] was 7.96.
For `O=C(CN1C[C@@]2(C[C@@H]2F)c2c(ccc(Cl)c2F)C1=O)Nc1ncc(F)cn1` (single isomer, unassigned) [Example 223, 2-[(2′s,4r)-6-chloro-2′,5-difluoro-1-oxospiro[3H-isoquinoline-4,1′-cyclopropane]-2-yl]-N-(5-fluoropyrimidin-2-yl)acetamide], the pIC50 reads like this: under setting [1], above 5.00; under setting [2], 7.26.
The like results for `O=C(CN1C[C@@]2(C[C@@H]2F)c2c(ccc(Br)c2F)C1=O)Nc1ncccn1` (single isomer, unassigned) [Example 224, 2-[(2′s,4r)-6-bromo-2′,5-difluoro-1-oxospiro[3H-isoquinoline-4,1′-cyclopropane]-2-yl]-N-pyrimidin-2-ylacetamide] were, in that order, above 5.00 and 7.31.
The corresponding values for `Cc1cnc(NC(=O)CN2C[C@@]3(C[C@@H]3F)c3c(ccc(Br)c3F)C2=O)nc1` (single isomer, unassigned) [Example 225, 2-[(2′s,4r)-6-bromo-2′,5-difluoro-1-oxospiro[3H-isoquinoline-4,1′-cyclopropane]-2-yl]-N-(5-methylpyrimidin-2-yl)acetamide] are above 5.00 and 7.72.
The like results for `O=C(CN1C[C@@]2(C[C@@H]2F)c2c(ccc(Br)c2F)C1=O)Nc1ncc(C(F)(F)F)cn1` (single isomer, unassigned) [Example 226, 2-[(2′s,4r)-6-bromo-2′,5-difluoro-1-oxospiro[3H-isoquinoline-4,1′-cyclopropane]-2-yl]-N-[5-(trifluoromethyl)pyrimidin-2-yl]acetamide] were, in that order, above 5.00 and 7.51.
With `O=C(CN1C[C@]2(C[C@H]2F)c2c(ccc(Br)c2F)C1=O)Nc1ncccn1` (single isomer, unassigned) [Example 227, 2-[(2′s,4r)-6-bromo-2′,5-difluoro-1-oxospiro[3H-isoquinoline-4,1′-cyclopropane]-2-yl]-N-pyrimidin-2-ylacetamide], the pIC50 is above 5.00 under setting [1] and 6.90 under setting [2].
The like results for `O=C(CN1C[C@@]2(C[C@@H]2F)c2c(ccc(C3CC3)c2F)C1=O)Nc1ncc(F)cn1` (single isomer, unassigned) [Example 228, 2-[(2′s,4r)-6-cyclopropyl-2′,5-difluoro-1-oxospiro[3H-isoquinoline-4,1′-cyclopropane]-2-yl]-N-(5-fluoropyrimidin-2-yl)acetamide] were, in that order, above 5.00 and 7.68.
As to `O=C(CN1C[C@@]2(C[C@@H]2F)c2c(ccc(C3CC3)c2F)C1=O)Nc1ncc(Cl)cn1` (single isomer, unassigned) [Example 229, 2-[(2′s,4r)-6-cyclopropyl-2′,5-difluoro-1-oxospiro[3H-isoquinoline-4,1′-cyclopropane]-2-yl]-N-(5-chloropyrimidin-2-yl)acetamide], the pIC50 is, setting by setting: under setting [1], above 5.00; under setting [2], 7.49.
Take `O=C(CN1C[C@@]2(C[C@@H]2F)c2cc(C(F)(F)F)ccc2C1=O)Nc1ncc(F)cn1` (single isomer, unassigned) [Example 234, 2-[(2′s,4r)-2′-fluoro-1-oxo-6-(trifluoromethyl)spiro[3H-isoquinoline-4,1′-cyclopropane]-2-yl]-N-(5-fluoropyrimidin-2-yl)acetamide]: the pIC50 by setting is: under setting [1], above 5.00; under setting [3], 7.11.
Turning to `O=C(CN1C[C@@]2(C[C@@H]2F)c2cc(C(F)(F)F)ccc2C1=O)Nc1ncc(F)cn1` (single isomer, unassigned) [Example 235, 2-[(2′s,4r)-2′-fluoro-1-oxo-6-(trifluoromethyl)spiro[3H-isoquinoline-4,1′-cyclopropane]-2-yl]-N-(5-fluoropyrimidin-2-yl)acetamide], the pIC50 was above 5.00 under setting [4] and 6.07 under setting [3].
As for `N#Cc1cnc(NC(=O)CN2C[C@@]3(C[C@@H]3F)c3cc(C(F)(F)F)ccc3C2=O)nc1` (single isomer, unassigned) [Example 236, N-(5-cyanopyrimidin-2-yl)-2-[(2′s,4r)-2′-fluoro-1-oxo-6-(trifluoromethyl)spiro[3H-isoquinoline-4,1′-cyclopropane]-2-yl]acetamide], the pIC50 reads like this: under setting [1], above 5.00; under setting [3], 5.95.
As to `N#Cc1cnc(NC(=O)CN2C[C@@]3(C[C@@H]3F)c3cc(C(F)(F)F)ccc3C2=O)nc1` (single isomer, unassigned) [Example 237, N-(5-cyanopyrimidin-2-yl)-2-[(2′s,4r)-2′-fluoro-1-oxo-6-(trifluoromethyl)spiro[3H-isoquinoline-4,1′-cyclopropane]-2-yl]acetamide], the pIC50 reads like this: under setting [4], above 5.00; under setting [3], 7.21.
With `O=C(CN1C[C@@]2(C[C@@H]2F)c2cc(C(F)(F)F)ccc2C1=O)Nc1ncc(Cl)cn1` (single isomer, unassigned) [Example 238, N-(5-chloropyrimidin-2-yl)-2-[(2′s,4r)-2′-fluoro-1-oxo-6-(trifluoromethyl)spiro[3H-isoquinoline-4,1′-cyclopropane]-2-yl]acetamide], the pIC50 under setting [1] was above 5.00 and the pIC50 under setting [3] was 6.38.
